Where a name gives a salt, the structure may show the parent alone.
System: patients with type II diabetes
Test: Clinical study on the combination of HMS5552 and metformin hydrochloride: blood glucose after the meal
Type: in vivo, human
Details: 13 type II diabetes patients; oral; metformin hydrochloride 500 mg (day 3), 500 mg + HMS5552 50 mg (day 8), HMS5552 50 mg (day 13); meal 30 minutes after administration
Description: 13 patients with type II diabetes were enrolled, who have been given a stable dose of metformin hydrochloride at 1000 mg/day for at least 14 days at the time of enrollment. On the 1st and 2nd day of the study, 500 mg of metformin hydrochloride was given orally daily both in the morning and in the evening; on the 3rd day, 500 mg of metformin hydrochloride was given once in the morning; on each day of the 4th to 7th day, 500 mg of metformin hydrochloride and 50 mg of HMS5552 were given daily both in the morning and in the evening; on the 8th day, 500 mg of metformin hydrochloride and 50 mg of HMS5552 were given once in the morning; on each day of 9th to 12th day, 50 mg of HMS5552 was given orally daily both in the morning and in the evening; and on the 13th day, 50 mg of HMS5552 was given once in the morning. Meals were taken 30 minutes after each administration of the test drugs.
Plasma samples were collected after administration on the 3rd, 8th and 13th day, and the blood glucose concentrations were analyzed.

| Structure (SMILES) | area under the curve for blood glucose between 0 and 4 hours after the meal (AUECO-4h) [mg·h/dL] |
| --- | --- |
| CC(C)C[C@@H](C(=O)Nc1ccn(C[C@@H](O)CO)n1)N1CC(Oc2ccccc2Cl)=CC1=O [HMS5552, (S)-2-[4-(2-chloro-phenoxy)-2-oxo-2,5-dihydro-pyrrol-1-yl]-4-methyl-pentanoic acid [1-((R)-2,3-dihydroxy-propyl)-1H-pyrazol-3-yl]-amide] | 72.96 |
| CN(C)C(=N)N=C(N)N [metformin, metformin hydrochloride] | 110.2 |

From patent US12318366B2, “Pharmaceutical combination and composition, and combination preparation containing glucokinase activator and biguanide hypoglycemic drug as well as preparation method and use thereof” (HUA Medicine (Shanghai) Ltd., priority 2018, dated 2025)
